We go through eleven compounds from US7838263B2, “Methods of identifying a plant with an Nsf1 locus” (E. I. du Pont de Nemours and Company, priority 2006, dated 2010).

SMILES strings stand for the structures.

Experiment [1] relates to transgenic soybean plants comprising the maize Nsf1 gene. Kind of experiment: T1 transgenic soybean plant herbicide efficacy testing. The conditions noted are these: sprayed at V3 stage; for tolerance of one of the two T1 events compared to the controls: first event, 8 DAT and 15 DAT; for tolerance of the second T1 event compared to the controls: 15 DAT. It counts as in vivo, Glycine max. As to the method:
Two events from the T0 generation were advanced to the T1 generation for additional herbicide efficacy testing of the Nsf1 gene. Replicates of two controls, as well as T1 plants, were grown in greenhouse experiments and sprayed with mesotrione at one of two rates (200 g/ha or 50 g/ha), nicosulfuron (70 g/ha), or rimsulfuron (35 g/ha) at the V3 growth stage. All herbicide treatments were applied with 1% w/w modified seed oil adjuvant in a spray volume of 374 L/ha. Plants were rated for herbicide response at eight days after application using a 1 to 9 score as used in the T0 testing.
An expanded herbicide efficacy test was developed in a second T1 plant experiment for the same two events advanced from the T0 generation. […] All herbicide treatments were applied in a spray volume of 287 L/ha. Isoxaflutole (140 g/ha), topramezone (140 g/ha), and sulcotrione (140 g/ha) were applied with 1% w/w modified seed oil adjuvant. Diuron treatments (560 g/ha) were applied with 1% w/w petroleum crop oil adjuvant. Acifluorfen (4480 g/ha), sulfentrazone (140 g/ha), flumioxazine (140 g/ha), and dicamba (280 g/ha) were applied with 0.25% w/w nonionic surfactant. Rimsulfuron (35 g/ha) treatments were applied with 0.5% w/w basic blend adjuvant. At eight and fifteen days after treatment, plants were rated visually for crop injury using a 0 to 100 scale (0=no injury to 100=dead plant).

For experiment [2], the system named is T0 soybean plants transformed with the Nsf1 gene. Nature of the experiment: T0 transgenic soybean plant herbicide response, visual score 1 to 9. In kind it is in vivo, Glycine max. The text has this:
Two different constructs comprising the Nsf1 gene were created to examine herbicide efficacy of the gene when transformed into soybean. The Nsf1 constructs were co-bombarded with a 35S:HYG insert to permit event selection using hygromycin. At the V2 to V6 growth stage, a total of 127 T0 plants were sprayed with 35 g/ha rimsulfuron. All rimsulfuron treatments were applied with 0.2% w/w nonionic surfactant in a spray volume of 287 L/ha. In addition to the T0 plants, replications of three different controls were included—two positive and one negative. Individual plants were evaluated for herbicide response at ten days after treatment, and assigned a visual response score from 1 to 9 (1=dead plant to 9=no effect observed). Based upon high tolerance scores to the initial rimsulfuron spray, five T0 events were sprayed with an additional 35 g/ha rimsulfuron. Plants were rated for visual tolerance using a 1 to 9 score at ten days after the second application.

The next experiment has as its system corn lines. Kind of experiment: Testing of maize plants for sensitivity to nicosulfuron. In kind it is in vivo, Zea mays. The conditions noted are these: misted with 2.3 mM nicosulfuron, 0.5% v/v Kinetic surfactant, approximately V3 stage. As to the method: In order to determine if the Nsf1 allele was consistent across maize lines, three corn lines with unknown sensitivity levels to nicosulfuron were tested to determine their reaction and then evaluate their sequences. Plants were misted with a 2.3 mM nicosulfuron, 0.5% v/v Kinetic surfactant solution at approximately the V3 stage. Both known resistant and sensitive lines were also grown and sprayed as controls. […] Three corn lines with unknown sensitivity levels to nicosulfuron were tested to determine their reaction. Plants were misted with a 2.3 mM nicosulfuron, 0.5% v/v Kinetic surfactant solution at approximately the V3 stage. Both known resistant and sensitive lines were also grown and sprayed as controls.

`C#CCN1C(=O)COc2cc(F)c(N3C(=O)C4=C(CCCC4)C3=O)cc21` [flumioxazine]: in experiment [1], the “tolerance of one of the two T1 events compared to the controls” value (“tolerance of one … compared to the controls” for short) is on record as “significantly better tolerance”.
For the compound `Cc1c(C(=O)c2cnn(C)c2O)ccc(S(C)(=O)=O)c1C1=NOCC1` [topramezone], in experiment [1], the “tolerance of one … compared to the controls” value was “significantly better tolerance” and the “tolerance of the second T1 event compared to the controls” value was “significantly better tolerance”.
For `CS(=O)(=O)c1ccc(C(=O)C2C(=O)CCCC2=O)c([N+](=O)[O-])c1` [mesotrione], in experiment [1], the “tolerance of one … compared to the controls” value was “significantly better tolerance” and the “tolerance of the second T1 event compared to the controls” value is given as “significantly better tolerance”.
In the case of `Cc1nn(-c2cc(NS(C)(=O)=O)c(Cl)cc2Cl)c(=O)n1C(F)F` [sulfentrazone], in experiment [1], the “tolerance of one … compared to the controls” value is given as “significantly better tolerance” and the “tolerance of the second T1 event compared to the controls” value was “significantly better tolerance”.
Consider `COc1c(Cl)ccc(Cl)c1C(=O)O` [dicamba], for which, in experiment [1], the “tolerance of one … compared to the controls” value is given as “significantly better tolerance” and the “tolerance of the second T1 event compared to the controls” value is given as “significantly better tolerance”.
On to `O=C(O)c1cc(Oc2ccc(C(F)(F)F)cc2Cl)ccc1[N+](=O)[O-]` [acifluorfen], for which, in experiment [1], the “tolerance of one … compared to the controls” value was “significantly better tolerance” and the “tolerance of the second T1 event compared to the controls” value is “significantly better tolerance”.
On to `CN(C)C(=O)Nc1ccc(Cl)c(Cl)c1` [diuron], for which, in experiment [1], the “tolerance of one … compared to the controls” value is “significantly better tolerance”.
As for `CS(=O)(=O)c1ccc(C(=O)C2C(=O)CCCC2=O)c(Cl)c1` [sulcotrione], in experiment [1], the “tolerance of one … compared to the controls” value is “significantly better tolerance” and the “tolerance of the second T1 event compared to the controls” value is given as “significantly better tolerance”.
On to `CCS(=O)(=O)c1cccnc1S(=O)(=O)NC(=O)Nc1nc(OC)cc(OC)n1` [rimsulfuron], for which, in experiment [2] (after an additional application of 35 g/ha rimsulfuron), the “T0 events with improved level of tolerance after an additional application” value is reported as “Three of 51”. Also, the “T0 events with improved tolerance compared to the controls” value in experiment [2] (ten days after treatment with 35 g/ha rimsulfuron, V2 to V6 stage) is listed as 4 of 51. In experiment [1], the “tolerance of one … compared to the controls” value was “significantly better tolerance” and the “tolerance of the second T1 event compared to the controls” value is given as “significantly better tolerance”.
In the case of `CS(=O)(=O)c1cc(C(F)(F)F)ccc1C(=O)c1cnoc1C1CC1` [isoxaflutole], in experiment [1], the “tolerance of one … compared to the controls” value is recorded as “significantly better tolerance” and the “tolerance of the second T1 event compared to the controls” value is given as “significantly better tolerance”.
Turning to `COc1cc(OC)nc(NC(=O)NS(=O)(=O)c2ncccc2C(=O)N(C)C)n1` [nicosulfuron], the “reaction of line A188 to nicosulfuron” value in the experiment on corn lines (line A188) was “sensitive”. For the same compound, the “reaction of line Black Mexican Sweet (BMS) to nicosulfuron” value with corn lines (line BMS) is given as “resistant”. Also, the “reaction of line Q66 to nicosulfuron” value in the experiment on corn lines (line Q66) is listed as “resistant”.
